According to the supplement of paper PMC8967900:

Experiments:
Experiment in all cases: selective drug sensitivity score (sDSS, relative to normal bone marrow) (sDSS (score)); higher = more potent and effective on the cell line relative to normal bone marrow cells
Settings in all cases: 72 h
RCH-ACV = system: RCH-ACV
MOLT-16 = system: MOLT-16
P30-OHKUBO = system: P30-OHKUBO
REH = system: REH
PF-382 = system: PF-382
P12-ICHIKAWA = system: P12-ICHIKAWA
HAL-01 = system: HAL-01
ALL-PO = system: ALL-PO
CCRF-CEM = system: CCRF-CEM
RPMI-8402 = system: RPMI-8402
MOLT-14 = system: MOLT-14
NALM-6 = system: NALM-6
KOPN-8 = system: KOPN-8
COG-LL-394h = system: COG-LL-394h
PEER = system: PEER
KASUMI-10 = system: KASUMI-10
COG-LL-332h = system: COG-LL-332h
NALL-1 = system: NALL-1
MHH-CALL-2 = system: MHH-CALL-2
TMD5 = system: TMD5
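Also: ALL cell lines in 384-well plates, five doses spanning 10,000-fold, each plate scaled between vehicle and 100 µmol/L benzalkonium chloride controls, sDSS an adapted area-under-curve metric.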

Structure (SMILES) | selective drug sensitivity score (RCH-ACV) | selective drug sensitivity score (MOLT-16) | selective drug sensitivity score (P30-OHKUBO) | selective drug sensitivity score (REH) | selective drug sensitivity score (PF-382) | selective drug sensitivity score (P12-ICHIKAWA) | selective drug sensitivity score (HAL-01) | selective drug sensitivity score (ALL-PO) | selective drug sensitivity score (CCRF-CEM) | selective drug sensitivity score (RPMI-8402) | selective drug sensitivity score (MOLT-14) | selective drug sensitivity score (NALM-6) | selective drug sensitivity score (KOPN-8) | selective drug sensitivity score (COG-LL-394h) | selective drug sensitivity score (PEER) | selective drug sensitivity score (KASUMI-10) | selective drug sensitivity score (COG-LL-332h) | selective drug sensitivity score (NALL-1) | selective drug sensitivity score (MHH-CALL-2) | selective drug sensitivity score (TMD5)
C[C@@]1(C(=O)Nc2ccc(F)nc2)CCCN1c1nc(Nc2cc(C3CC3)n[nH]2)c2cccn2n1 (top concentration 10000 nM) | 6.08 | 12.5 | 11.2 | 9.08 | 6.18 | 11.3 | 2.58 | 13 | 11.8 | 5.58 | 12.7 | 4.08 | 4.68 | 5.98 | 11.2 | 4.68 | 10.5 | 8.98 | 11.7 | -0.12
Cc1c(-c2c(-c3ccc(F)o3)sc3ncnc(O[C@H](Cc4ccccc4OCc4ccnn4CC(F)(F)F)C(=O)O)c23)ccc(OCCN2CCN(C)CC2)c1Cl (top concentration 1000 nM) | -6.54 | 7.46 | 1.26 | -6.84 | -7.74 | -5.84 | -7.74 | -7.74 | -0.24 | -4.54 | 3.06 | -3.44 | 13.4 | -4.54 | -0.14 | -2.64 | -5.84 | -7.74 | -6.04 | -7.74
Cn1cc(CNCC2CCN(c3ncc(C(=O)NO)cn3)CC2)c2ccccc21 [Quisinostat] (top concentration 1000 nM) | 14.2 | 6.28 | 7.18 | -1.12 | 2.08 | 3.78 | -5.02 | 5.98 | 3.98 | 5.58 | 6.98 | 1.78 | 10.5 | 6.78 | 2.88 | 7.38 | 1.48 | -0.72 | 8.28 | 5.08
Nc1cc(F)ccc1NC(=O)c1ccc(CNC(=O)/C=C/c2cccnc2)cc1 [Tucidinostat] (top concentration 10000 nM) | 11.1 | 4.54 | 4.04 | 3.34 | 0.74 | 4.04 | -2.06 | 2.94 | 2.44 | 2.94 | 3.94 | -0.36 | 12.4 | -3.86 | 5.44 | 3.04 | -2.76 | -2.76 | 9.14 | 4.14
O=C(O)c1ccc2c(c1)nc(Nc1cccc(Cl)c1)c1ccncc12 [Silmitasertib] (top concentration 10000 nM) | 0.8 | 4.8 | 1.8 | 4.8 | 2 | 0.6 | 3.8 | 1.9 | 4.1 | 3.3 | 4.1 | 4 | 11.4 | 2.3 | 3.6 | 3.8 | 4 | 2.2 | 6.6 | -2.2
COc1c(C)cnc(Cn2cnc3c(Cl)nc(N)nc32)c1C [BIIB021] (top concentration 10000 nM) | 9.58 | 12.7 | 3.38 | 5.68 | 5.78 | 2.28 | 3.98 | 5.88 | 7.88 | 0.68 | 7.28 | 7.88 | 12 | -4.02 | 3.58 | 8.78 | 8.98 | 1.08 | 2.48 | 1.58
CC(C)[C@H]1C(=O)N[C@@H](CCCNC(=N)N)C(=O)NCC(=O)N[C@@H](CC(=O)O)C(=O)N[C@H](Cc2ccccc2)C(=O)N1C [Cilengitide] (top concentration 10000 nM) | 0 | 0 | 4.2 | 0 | 0 | 0 | 6.5 | 0 | 0 | 0 | 0 | 0 | 13.8 | 0 | 0 | 0 | 0 | 11.8 | 7.1 | 7.5
Nc1ccccc1NC(=O)c1ccc(CNc2nccc(-c3cccnc3)n2)cc1 [Mocetinostat] (top concentration 10000 nM) | 9.54 | 9.04 | 7.54 | 3.94 | 6.04 | 6.24 | 2.14 | 7.24 | 5.54 | 6.34 | 9.14 | 2.94 | 9.24 | 2.74 | 9.24 | 6.74 | 7.04 | -3.16 | 7.74 | 1.44
NC(=O)N1CCC(CC(=O)N2CCC([C@H]3c4ncc(Br)cc4CCc4cc(Cl)cc(Br)c43)CC2)CC1 [Lonafarnib] (top concentration 100000 nM) | 8.64 | 11.2 | 7.84 | 8.04 | 9.44 | 6.74 | 3.44 | 4.64 | 9.74 | 19.2 | 14.1 | 6.24 | 12.8 | 3.04 | 5.94 | -1.56 | 10.1 | 1.54 | 9.24 | -3.36
CCN(CCO)CCCOc1ccc2c(Nc3cc(CC(=O)Nc4cccc(F)c4)[nH]n3)ncnc2c1 [AZD1152-HQPA] (top concentration 1000 nM) | 14 | 27.7 | 24.7 | 17.2 | 9.94 | 19 | -4.46 | 7.64 | 16.9 | 13 | 17.8 | 8.94 | 12.1 | 3.24 | 21.8 | 16 | 21.6 | 9.54 | 6.64 | 9.14
COCC[n+]1c2c(n(Cc3cnccn3)c1C)C(=O)c1ccccc1C2=O [Sepantronium_bromide] (top concentration 10000 nM) | 17.9 | 12.7 | 22.8 | 17.8 | 14.1 | 4.14 | -12.6 | 4.44 | 8.44 | 7.64 | 12.5 | 22.3 | 22.8 | -11.7 | 15.1 | 18.6 | 14.2 | 16.2 | 22.8 | 20.5
COc1cc(Nc2ncc(F)c(Nc3ccc4c(n3)NC(=O)C(C)(C)O4)n2)cc(OC)c1OC [Tamatinib] (top concentration 10000 nM) | 14 | -5.42 | 4.38 | -2.22 | -4.32 | -5.02 | -2.92 | 9.98 | -5.42 | 0.68 | -4.62 | -5.42 | -2.12 | -5.42 | -5.42 | 8.58 | -0.22 | -3.82 | -4.92 | -5.42
O=C(Nc1cccc(NC(=O)c2cccc(O)c2O)c1)c1cccc(O)c1O [MST-312] (top concentration 10000 nM) | 0.7 | 17.3 | 8.1 | 7.4 | 6 | 6.6 | 7.6 | 5.6 | 7.1 | 5.9 | 5.8 | 9.5 | 15.2 | 1.1 | 9.4 | 1 | 13.1 | 0.8 | 10.8 | -3
CCCCCCCCCCCCCCCCOP(=O)([O-])OCC[N+](C)(C)C [Miltefosine] (top concentration 100000 nM) | 3.16 | -1.34 | 2.26 | 2.76 | 1.16 | 6.56 | -1.34 | 2.26 | -0.04 | 1.46 | 0.76 | 1.66 | 7.56 | -1.54 | 13.1 | -1.14 | 0.76 | 5.26 | 6.96 | -1.64
CO[C@@H]1[C@H](N(C)C(=O)c2ccccc2)C[C@H]2O[C@]1(C)n1c3ccccc3c3c4c(c5c6ccccc6n2c5c31)C(=O)NC4 [Midostaurin] (top concentration 10000 nM) | 16.2 | 12.5 | 14.4 | 3.66 | 4.46 | 9.76 | 3.06 | 14.8 | 7.06 | 3.66 | 11.6 | 7.56 | 12.1 | -3.84 | 4.16 | 13.4 | 6.26 | 5.36 | 3.86 | 0.66
O=C(CCCCCCNC(=O)c1cnc(N(c2ccccc2)c2ccccc2)nc1)NO [Rocilinostat] (top concentration 10000 nM) | 9.24 | 6.94 | 5.04 | 6.04 | 4.84 | 5.34 | -0.56 | 5.84 | 4.64 | 4.64 | 8.44 | 4.84 | 13.8 | 3.74 | 7.14 | 4.24 | 3.34 | -0.66 | 11.2 | 0.04
C[C@@H]1COCCN1c1cc(C2([S@](C)(=N)=O)CC2)nc(-c2cc[nH]c3nccc2-3)n1 [AZD6738] (top concentration 25000 nM) | 15.9 | 13 | 5.78 | 13.1 | 4.68 | 9.98 | 9.58 | 4.58 | 10.8 | 8.98 | 11.5 | 7.28 | 15.5 | -2.72 | 5.88 | 8.08 | 8.08 | 7.68 | 13.2 | 5.88
CN(C(=O)c1ccc(F)cc1C(F)(F)F)C1CCN(c2nnc(-c3ccnn3C)c3ccccc23)CC1 [Taladegib] (top concentration 10000 nM) | -0.52 | 3.88 | -0.02 | 3.58 | 0.78 | -0.22 | 2.78 | -0.52 | -0.82 | 2.38 | -1.12 | 2.68 | 6.68 | 2.08 | 1.88 | -1.12 | 1.08 | -1.12 | 3.18 | -1.02
